The record followed here is US7271158B2, “Treatment of rumen acidosis with α-amylase inhibitors” (Pfizer Inc., priority 2000, dated 2007).

The test system of this assay is acute acidosis after carbohydrate challenge in cannulated cattle. The assay is described as follows: Acute acidosis model (carbohydrate challenge). The assay is classed as in vivo, Holstein dried off cows and heifers. The text has this:
Acute Acidosis Model: Assessment of Acarbose [table] Procedures: Ten Holstein dried off cows and heifers (initial weight 740±27 (SE) kg, range=606–870 kg) were group-housed during the pre-treatment period and individually housed during the experimental period. Animals were moved to a head-gate during sample collection, treatment and first challenge. Subsequently, they were sampled and dosed in their individual pens. Animals were offered approximately 5 kg alfalfa hay, 16 kg silage, 6 kg concentrate and 0.5 kg straw daily in a total mixed ration offered in two feedings (60:40 concentrate:roughage diet ). They were bedded on straw only during the pre-treatment period. Water was provided ad libitum. Animals were adapted to the lactating ration for at least 10 days before treatments were administered. From a group of 6 dry cows and 5 non-lactating heifers, ten were selected based on previous exposure to challenge and general health. Animals were paired by body weight and were randomly assigned to control and acarbose treatment groups within pair, ensuring similar distribution of heifers and cows. On days 0–6 of treatment, animals received 1.07 mg acarbose/kg dissolved in ˜200 mL water through the rumen cannula just before AM (07:30) and PM (16:00) feedings. Treatment 1 animals received an equivalent amount of water only. On days 7 and 8, each animal was administered a challenge through the cannula. When pH reached ˜4.5 and there was evidence of L-lactate production, acute acidosis was considered to be induced. When an animal experienced acute acidosis by these criteria, rumen contents were removed and the rumen inoculated with rumen contents from a donor animal. Animals were weighed on days—1 and 5 for calculation of acarbose dosing and challenge amounts. To measure rumen fluid pH animals were fitted with a harness to hold an automatic pH data recording system. The rumen pH was recorded every 10 min during the days of challenge until an animal experienced acute acidosis. Rumen fluid samples were taken (˜50 mL) from the rumen cannula through a filtered sampling tube. […] The pH was measured immediately. […] In some cases the sample was filtered through gauze before pH measurement and acid treatment. This mixture was centrifuged for 10 min at 12000 g. One aliquot of the supernatant was removed for immediate lactate analysis, one frozen for subsequent lactate analysis using Sigma kit 826. A third aliquot was transferred to an auto-sampler vial for subsequent VFA analysis. An initial determination of L-lactate was made during the study to establish acidotic status using Sigma kit 735. Subsequently D and L-lactate were re-measured for statistical analysis as described below. VFA's were measured on a Hewlett Packard 6890 series gas chromatograph fitted with an auto-sampler and flame ionisation detector. The acids were resolved on a SGE Ltd. 25 metre BP21 column (0.33 mm O.D., 0.22 mm I.D. 0.25 um film thickness). Nitrogen was used as the carrier gas with a flow rate of 1.9 ml/min. The oven temperature was 165° C., and injection ports and detectors were held at 250° C. Concentrations were calculated by using crotonic acid as an internal standard, and the system was calibrated using a standard solution containing acetic, propionic, butyric, iso-valeric and n-valeric acids.

As for `CC1OC(OC2C(CO)OC(OC3C(CO)OC(O)C(O)C3O)C(O)C2O)C(O)C(O)C1NC1C=C(CO)C(O)C(O)C1O` (centres unmarked) [Acarbose, acarbose], where the note is “0 hours post second challenge”, the “Group mean D-Lactate” value is reported as 0.67 mM, the “Group mean L-Lactate” value amounted to 0.35 mM and the “Group mean Total-Lactate” value is given as 1.02 mM. For the same molecule, where the note is “1.07 mg/kg BW BID 7 days pre-challenge, via cannula”, the “acute acidosis following carbohydrate challenge” value was “prevented acute acidosis”. Further, under “3 hours post second challenge”, the “Group mean D-Lactate” value turned out to be 3.63 mM, the “Group mean L-Lactate” value is 1.28 mM and the “Group mean Total-Lactate” value stood at 4.91 mM. For the setting “5 hours post second challenge”, the “Group mean D-Lactate” value was determined as 10.91 mM, the “Group mean L-Lactate” value turned out to be 3.08 mM and the “Group mean Total-Lactate” value is recorded as 13.99 mM. Further, for the setting “7 hours post second challenge”, the “Group mean D-Lactate” value stood at 18.00 mM, the “Group mean L-Lactate” value stood at 4.93 mM and the “Group mean Total-Lactate” value came to 22.93 mM. For the same molecule, the “rumen pH” value (after second carbohydrate challenge, all treated cattle, 1.07 mg/kg BW BID 7 days pre-challenge, via cannula) is “above 5.0”. For the same molecule, the “lactate level in rumen fluid” value (after second challenge, all acarbose-treated animals (four of five controls >50 mM)) is listed as “remained at zero”. For the same molecule, for the setting “twice a day treatment”, the “L-lactate production in response to the load” value is listed as “blocked” and the “pH responses to a high carbohydrate load” value is on record as “reduced”.
